Values after ≈ are worked out from the molar mass of the structure shown.
Columns and labels:
Test in all cases: Broth microdilution MIC, Example 7 (NCL812 and analogues)
MRSA = type: cell-based, Staphylococcus aureus; conditions: for activity against MRSA among analogues: MIC testing, two MRSA strains
Procedure, shortened: (§1)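 Turbidity read visually and then at 600 nm defined the MIC (μg/ml), comparing drug-containing wells with a growth-control well lacking antimicrobial. Testing followed the CLSI broth microdilution method, in duplicate, using two strains per organism group.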

VRE = type: cell-based, Enterococcus spp.; conditions: for activity against VRE among analogues: MIC testing, two VRE strains
Procedure, shortened: as §1

Escherichia coli = type: cell-based; conditions: 24 hours
Pseudomonas aeruginosa = type: cell-based; conditions: 24 hours
[1] = isolate MRSA 1, 1st and 2nd replicate rows
[2] = isolate MRSA 2, 1st and 2nd replicate rows
[3] = isolate VRE 1, 1st and 2nd replicate rows
[4] = isolate VRE 2, 1st and 2nd replicate rows
[5] = MRSA 1, duplicate lines per compound
[6] = MRSA 2, duplicate lines per compound
[7] = VRE 1, duplicate lines per compound
[8] = VRE 2, duplicate lines per compound
[9] = E. coli, duplicate lines per compound
[10] = P. aeruginosa, duplicate lines per compound

Structure (SMILES) | MIC (μg/ml) at 24 hours, MRSA 1 (MRSA; [1]) | MIC (μg/ml) at 24 hours, MRSA 2 (MRSA; [2]) | MIC (μg/ml) at 24 hours, VRE 1 (VRE; [3]) | MIC (μg/ml) at 24 hours, VRE 2 (VRE; [4]) | MIC (μg/ml) at 24 hours, E. coli (Escherichia coli; 1st and 2nd replicate rows) | MIC (μg/ml) at 24 hours, P. aeruginosa (Pseudomonas aeruginosa; 1st and 2nd replicate rows) | activity against MRSA among analogues (MRSA) | activity against VRE among analogues (VRE) | MIC (μg/ml) at 24 hours, MRSA 1 (MRSA; [5]) | MIC (μg/ml) at 24 hours, MRSA 2 (MRSA; [6]) | MIC (μg/ml) at 24 hours, VRE 1 (VRE; [7]) | MIC (μg/ml) at 24 hours, VRE 2 (VRE; [8]) | MIC (μg/ml) at 24 hours, E. coli (Escherichia coli; [9]) | MIC (μg/ml) at 24 hours, P. aeruginosa (Pseudomonas aeruginosa; [10])
N#Cc1cccc(/C=N/NC(=S)N/N=C/c2cccc(C#N)c2)c1 [NCL065] | >128 µg/mL | >128 µg/mL | >128 µg/mL | >128 µg/mL | >128 µg/mL | >128 µg/mL | – | – | – | – | – | – | – | –
Fc1cccc(/C=N/NC(=S)N/N=C/c2cccc(F)c2)c1 [NCL066] | >128 µg/mL | >128 µg/mL | >128 µg/mL | >128 µg/mL | >128 µg/mL | >128 µg/mL | – | – | – | – | – | – | – | –
NC(=O)N/N=C/c1cccc(C(F)(F)F)c1 [NCL067] | >128 µg/mL | >128 µg/mL | >128 µg/mL | >128 µg/mL | >128 µg/mL | >128 µg/mL | – | – | – | – | – | – | – | –
C/C(=N\NC(=N)N/N=C/c1ccc(C(F)(F)F)cc1)c1ccc(Cl)cc1.Cl [NCL068] | >128 µg/mL | >128 µg/mL | >128 µg/mL | >128 µg/mL | >128 µg/mL | >128 µg/mL | – | – | – | – | – | – | – | –
CC(=NNC(=N)NN)c1ccc(Cl)cc1.Cl [NCL069] | 128 µg/mL | 128 µg/mL | 128 µg/mL | 64 µg/mL | >128 µg/mL | >128 µg/mL | greatest activity | greatest activity | – | – | – | – | – | –
S=C(N/N=C/c1cccc(Cl)c1)N/N=C/c1cccc(Cl)c1 [NCL070] | >128 µg/mL | >128 µg/mL | >128 µg/mL | 32 µg/mL (≈ 91.1 µM) | >128 µg/mL | >128 µg/mL | – | greatest activity | – | – | – | – | – | –
Cl.N=C(NN)NN=Cc1ccc(Cl)cc1 [NCL072] | – | – | – | – | – | – | greatest activity | greatest activity | 32 µg/mL | 64 µg/mL | 64 µg/mL | 64 µg/mL | >128 µg/mL | >128 µg/mL
CC(=NNC(=N)NN)c1ccc(C(F)(F)F)cc1.Cl [NCL073] | – | – | – | – | – | – | greatest activity | greatest activity | 128 µg/mL | 128 µg/mL | 16 µg/mL | 64 µg/mL | >128 µg/mL | >128 µg/mL
C/C(=N\NC(=N)N/N=C/c1ccc(C(F)(F)F)cc1)c1ccc(C(F)(F)F)cc1.Cl [NCL075] | – | – | – | – | – | – | – | – | >128 µg/mL | >128 µg/mL | >128 µg/mL | >128 µg/mL | >128 µg/mL | >128 µg/mL
Cc1ccc(C=NNC(=N)NN=Cc2ccc(Cl)cc2)cc1.Cl [NCL076] | – | – | – | – | – | – | – | – | >128 µg/mL | >128 µg/mL | >128 µg/mL | >128 µg/mL | >128 µg/mL | >128 µg/mL
Cl.N=C(N/N=C/c1ccc(Cl)cc1)N/N=C/c1ccc(C(F)(F)F)cc1 [NCL077] | – | – | – | – | – | – | – | – | >128 µg/mL | >128 µg/mL | >128 µg/mL | >128 µg/mL | >128 µg/mL | >128 µg/mL
Cl.N=C(N/N=C/c1ccc(Cl)cc1)N/N=C/c1cccc(Cl)c1 [NCL083] | – | – | – | – | – | – | – | – | >128 µg/mL | >128 µg/mL | >128 µg/mL | >128 µg/mL | >128 µg/mL | >128 µg/mL
Cl.N#Cc1ccccc1C=NNC(=N)NN=Cc1ccc(Cl)cc1 [NCL085] | – | – | – | – | – | – | – | – | >128 µg/mL | >128 µg/mL | >128 µg/mL | >128 µg/mL | >128 µg/mL | >128 µg/mL
Cl.N#Cc1cccc(C=NNC(=N)NN=Cc2ccc(Cl)cc2)c1 [NCL086] | – | – | – | – | – | – | – | – | >128 µg/mL | >128 µg/mL | >128 µg/mL | 128 µg/mL | >128 µg/mL | >128 µg/mL
Cl.N#Cc1ccc(/C=N/NC(=N)N/N=C/c2ccc(Cl)cc2)cc1 [NCL087] | – | – | – | – | – | – | – | – | >128 µg/mL | >128 µg/mL | >128 µg/mL | >128 µg/mL | >128 µg/mL | >128 µg/mL
Cl.N=C(NC(=O)c1ccccc1)N(N=Cc1ccccc1Cl)C(=O)c1ccccc1 [NCL090] | – | – | – | – | – | – | – | – | >128 µg/mL | >128 µg/mL | >128 µg/mL | >128 µg/mL | >128 µg/mL | >128 µg/mL
FC(F)(F)c1ccc(-c2nnc(Nc3ccc(Cl)cc3)[nH]2)cc1 [NCL091] | – | – | – | – | – | – | – | – | >128 µg/mL | >128 µg/mL | >128 µg/mL | >128 µg/mL | >128 µg/mL | >128 µg/mL
Clc1ccc(CNc2nnc(-c3ccc(Cl)cc3)[nH]2)cc1 [NCL092] | – | – | – | – | – | – | – | – | >128 µg/mL | >128 µg/mL | >128 µg/mL | >128 µg/mL | >128 µg/mL | >128 µg/mL
Cl.N=C(N/N=C/c1ccc2ccccc2c1)N/N=C/c1ccc2ccccc2c1 [NCL093] | – | – | – | – | – | – | greatest activity | greatest activity | 64 µg/mL | 128 µg/mL | 64 µg/mL | >128 µg/mL | >128 µg/mL | >128 µg/mL
Cl.N=C(NN=CC1CCCCC1)NN=CC1CCCCC1 [NCL094] | – | – | – | – | – | – | greatest activity | greatest activity | 128 µg/mL | 128 µg/mL | 64 µg/mL | 128 µg/mL | >128 µg/mL | >128 µg/mL
Cl.N=C(NN=Cc1ccoc1)NN=Cc1ccoc1 [NCL095] | – | – | – | – | – | – | – | – | >128 µg/mL | >128 µg/mL | >128 µg/mL | >128 µg/mL | >128 µg/mL | >128 µg/mL

— patent publication US10253002B2, “Compounds and methods of treating infections” (Neoculi Pty Ltd., priority 2013, dated 2019)
